In US20250052765A1, “Nanobody Discovery Platform and Related Methods” (Carnegie Mellon University, priority 2021, published 2025):

What was measured:
LaG18/GFP strain = conditions: 300 nM TD during cell culture; bleached for 90 sec at 525 nm
Description: Flow cytometer histograms of LaG18/GFP strain labeled during cell culture with 300 nM TD. Mean values are shown; unbleached (red), bleached for 90 sec at 525 nm (blue), and unlabeled control cells (orange).

Description for NB/TPD complexes: Green numbers are NB-gFAP signal; red numbers are TPD-rFAP signals. In vivo, cells treated with 300 nM TD during 3-day cell culture; in vitro, cells treated with TD after harvest in assay buffer for 4 hours.
The green emitting fluorogen activating protein (gFAP) is genetically fused using GG assembly 3′ to each NB (NB-gFAP) where the gFAP may be ScFvl or AM2-2; the red emitting FAP (rFAP) is fused 3′ to each TPD (TPD-rFAP) where the rFAP is dL5. […] If co-expressed NB and TPD specifically bind one another, the TPD-rFAP will be captured on the surface of the co-expressing cell. However, its residence will be finite as determined by the binding affinity of the NB/TPD complex; most of the TPD-rFAP will be lost into the medium over the 3 day period of cell culture. […] This enables quantitative self-reporting of the presence of the NB/TPD complex as a ratio of red to green fluorescence. FACS will then be used to isolate cells displaying the complex.
The secreted ectodomain TPD-rFAP fusions are initially sequestered within the yeast periplasmic space and/or inner cell wall, and upon buffer treatment released to outer cell surface over the course of a few hours (FIG. 22). […] A second feature of TDs is that they can be successfully applied to cells post-harvest instead of the usual inclusion of TDs in growth medium for 3 days.

**Q.** What does the source list for sulfonate TO1-PEG3500-MG?
**A.** binding affinities of NB/TPD complexes efficiently locked/captured on the yeast cell surface (NB/TPD complexes): ≤ 20 µM; loss of rFAP/MG (TPD) signal after bleaching TO1 end of TD (LaG18/GFP strain): about half of the rFAP/MG signal is lost
